From patent publication US10196390B2, “TYK2 inhibitors and uses thereof” (Nimbus Lakshmi, Inc., priority 2014, dated 2019)
Read-outs that look alike come from different tables or passages of the source.

Key:
JAK2-pSTAT5 = assay: GM-CSF induced pSTAT5 in human PBMC; assay type: cell-based; conditions: read-out: JAK2-pSTAT5 EC50
Description: Human PBMC are isolated from buffy coat and are stored frozen for assays as needed. […] 15 μl of compound or DMSO is added to the well at the desired concentrations and incubated at 1 hr at 37 C. 15 μl of stimulus (final concentration of 1.7 ng/mL IL-12) is added for 30 minutes prior to pSTAT4 and total STAT4 analysis using cell lysates prepared and analyzed by MSD reagents as per manufacturer protocol. The final DMSO concentration of compound in the assay is 0.1%.
Cells are prepared for analysis as in the above procedure and 15 μl of GM-CSF (final concentration 5 ng/mL) is added for 20 minutes prior to pSTAT5 and total STAT5 analysis using cell lysates prepared and analyzed by MSD reagents as per manufacturer protocol. The final DMSO concentration of compound in the assay is 0.1%.

Tyk2-pSTAT4 = assay: IL-12 induced pSTAT4 in human PBMC; assay type: cell-based; conditions: read-out: Tyk2-pSTAT4 EC50
Description: Human PBMC are isolated from buffy coat and are stored frozen for assays as needed. Cells for assay are thawed and resuspended in complete media containing serum, then cells are diluted to 1.67 E6 cells/ml so that 120 μl per well is 200,000 cells. 15 μl of compound or DMSO is added to the well at the desired concentrations and incubated at 1 hr at 37 C. 15 μl of stimulus (final concentration of 1.7 ng/mL IL-12) is added for 30 minutes prior to pSTAT4 and total STAT4 analysis using cell lysates prepared and analyzed by MSD reagents as per manufacturer protocol. The final DMSO concentration of compound in the assay is 0.1%.

JAK2 = JAK2 (Homo sapiens (Human), UniProt O60674); assay: JAK2 activity inhibition assay (radioactive kinase assay / Caliper assay); assay type: biochemical
Method in brief: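 Mobility-shift (Caliper) read-out of phosphorylated peptide substrate. Compound diluted in 25 mM HEPES pH 7.5, 0.01% Brij-35, 0.01% Triton, 0.5 mM EGTA; enzyme added, then peptide plus ATP in 10 mM MgCl2. Incubated 25 min at 28° C, stopped with EDTA buffer.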

TYK2 = TYK2 (Homo sapiens (Human), UniProt P29597); assay: Tyk2 activity inhibition assay (radioactive kinase assay / Caliper assay); assay type: biochemical
Method in brief: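 Radiometric format: TYK2 with peptide substrate (20 μM) and 33P-ATP at 10 μM in HEPES pH 7.5, 1% DMSO, 120 min at room temp, P81 paper capture. Caliper mobility-shift format: TYK2 9.75 nM, peptide 30 at 3 uM, ATP 16 uM (also 1 mM), 25 min at 28° C.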

[1] = GM-CSF induced pSTAT5, human PBMC
[2] = IL-12 induced pSTAT4, human PBMC

Sequence of JAK2 (O60674 whole entry): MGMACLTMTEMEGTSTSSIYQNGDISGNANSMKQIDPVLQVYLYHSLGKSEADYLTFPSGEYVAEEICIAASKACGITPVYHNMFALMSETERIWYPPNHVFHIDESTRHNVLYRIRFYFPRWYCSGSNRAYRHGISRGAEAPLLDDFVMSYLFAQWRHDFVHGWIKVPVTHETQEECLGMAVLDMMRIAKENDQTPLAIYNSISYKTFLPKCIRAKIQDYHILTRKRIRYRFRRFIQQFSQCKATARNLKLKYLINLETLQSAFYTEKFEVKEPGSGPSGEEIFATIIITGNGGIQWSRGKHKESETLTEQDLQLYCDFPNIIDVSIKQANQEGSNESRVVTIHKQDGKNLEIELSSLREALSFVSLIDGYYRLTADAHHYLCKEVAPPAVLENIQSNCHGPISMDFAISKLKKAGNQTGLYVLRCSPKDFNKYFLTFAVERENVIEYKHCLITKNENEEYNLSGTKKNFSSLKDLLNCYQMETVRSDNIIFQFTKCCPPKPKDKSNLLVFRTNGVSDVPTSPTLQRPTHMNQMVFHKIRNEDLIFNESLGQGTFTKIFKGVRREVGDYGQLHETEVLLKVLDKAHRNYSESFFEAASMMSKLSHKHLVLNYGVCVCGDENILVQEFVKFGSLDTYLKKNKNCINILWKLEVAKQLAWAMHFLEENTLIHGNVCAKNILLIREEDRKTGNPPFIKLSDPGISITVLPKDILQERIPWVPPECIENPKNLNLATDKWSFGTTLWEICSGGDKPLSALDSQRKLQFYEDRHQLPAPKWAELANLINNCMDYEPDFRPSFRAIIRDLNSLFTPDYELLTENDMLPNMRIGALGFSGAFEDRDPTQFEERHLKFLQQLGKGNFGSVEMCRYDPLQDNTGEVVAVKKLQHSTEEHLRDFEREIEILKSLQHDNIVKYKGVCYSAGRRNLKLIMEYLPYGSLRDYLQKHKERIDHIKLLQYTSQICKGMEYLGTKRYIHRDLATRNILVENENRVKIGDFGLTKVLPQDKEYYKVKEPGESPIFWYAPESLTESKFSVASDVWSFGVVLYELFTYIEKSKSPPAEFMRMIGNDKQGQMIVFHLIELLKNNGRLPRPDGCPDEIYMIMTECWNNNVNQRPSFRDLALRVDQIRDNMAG
Sequence of TYK2 (P29597 whole entry): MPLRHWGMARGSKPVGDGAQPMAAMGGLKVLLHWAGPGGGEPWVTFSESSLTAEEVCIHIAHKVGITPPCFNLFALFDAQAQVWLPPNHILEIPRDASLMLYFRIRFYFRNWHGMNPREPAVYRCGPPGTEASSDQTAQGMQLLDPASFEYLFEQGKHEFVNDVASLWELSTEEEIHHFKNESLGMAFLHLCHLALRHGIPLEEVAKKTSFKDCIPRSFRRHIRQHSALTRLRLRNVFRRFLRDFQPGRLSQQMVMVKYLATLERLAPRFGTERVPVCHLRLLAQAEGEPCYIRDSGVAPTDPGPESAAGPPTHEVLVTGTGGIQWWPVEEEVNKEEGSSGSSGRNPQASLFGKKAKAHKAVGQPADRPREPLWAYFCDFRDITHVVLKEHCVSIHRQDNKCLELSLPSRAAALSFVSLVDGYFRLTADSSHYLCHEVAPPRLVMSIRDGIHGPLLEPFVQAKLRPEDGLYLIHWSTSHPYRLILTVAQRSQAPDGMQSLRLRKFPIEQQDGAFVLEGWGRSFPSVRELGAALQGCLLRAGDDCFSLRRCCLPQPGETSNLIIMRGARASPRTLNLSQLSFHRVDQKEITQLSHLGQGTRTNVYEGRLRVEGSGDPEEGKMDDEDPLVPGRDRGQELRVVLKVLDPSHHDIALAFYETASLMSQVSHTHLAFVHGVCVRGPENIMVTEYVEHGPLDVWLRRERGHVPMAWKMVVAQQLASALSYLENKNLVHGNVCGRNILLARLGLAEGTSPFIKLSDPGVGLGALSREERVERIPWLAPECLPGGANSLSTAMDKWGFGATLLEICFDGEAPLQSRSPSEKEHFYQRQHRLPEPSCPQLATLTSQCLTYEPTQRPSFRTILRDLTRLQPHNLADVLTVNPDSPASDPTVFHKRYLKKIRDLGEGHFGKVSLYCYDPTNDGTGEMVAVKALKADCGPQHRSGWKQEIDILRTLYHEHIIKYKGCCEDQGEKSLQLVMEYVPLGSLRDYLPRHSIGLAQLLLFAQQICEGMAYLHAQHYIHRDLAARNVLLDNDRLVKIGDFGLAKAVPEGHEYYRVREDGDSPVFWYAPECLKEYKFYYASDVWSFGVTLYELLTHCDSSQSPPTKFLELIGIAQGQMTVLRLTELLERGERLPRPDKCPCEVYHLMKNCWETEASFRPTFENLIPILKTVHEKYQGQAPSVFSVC

Row | Structure (SMILES) | EC50 (JAK2-pSTAT5; Homo sapiens, PBMC) | EC50 (Tyk2-pSTAT4; Homo sapiens, PBMC) | Ki (JAK2; read-out: JAK2 Ki) | Ki (TYK2) | Ki (JAK2) | EC50 (JAK2-pSTAT5; [1]) | EC50 (Tyk2-pSTAT4; [2])
1 | C[C@H](C(=O)N1CCCCC1)c1ccc(Nc2nc(-c3c(F)cccc3F)nc3c2C(=O)NC3)cc1 [Compound I-206, (S)-2-(2,6-difluorophenyl)-4-((4-(1-oxo-1-(piperidin-1-yl)propan-2-yl)phenyl)amino)-6,7-dihydro-5H-pyrrolo[3,4-d]pyrimidin-5-one] | > 20000 nM | < 2000 nM | 100 to 1000 nM | < 10 nM | – | – | –
2 | O=C1NCc2nc(-c3c(F)cccc3F)nc(Nc3ccc(CC(=O)N4CCN(CC(F)F)CC4)cc3)c21 [Compound I-78, 4-((4-(2-(4-(2,2-difluoroethyl)piperazin-1-yl)-2-oxoethyl)phenyl)amino)-2-(2,6-difluorophenyl)-6,7-dihydro-5H-pyrrolo[3,4-d]pyrimidin-5-one] | > 20000 nM | < 2000 nM | – | < 10 nM | 10 to 100 nM | – | –
3 | O=C1NCc2nc(-c3c(F)cccc3F)cc(Nc3ccc(N4CC(O)C4)cn3)c21 [Compound I-214, 2-(2,6-difluorophenyl)-4-((5-(3-hydroxyazetidin-1-yl)pyridin-2-yl)amino)-6,7-dihydro-5H-pyrrolo[3,4-b]pyridin-5-one] | – | – | 10 to 100 nM | < 10 nM | – | 2000 to 20000 nM | < 2000 nM
4 | O=C(Cc1ccc(Nc2nc(-c3c(F)cccc3F)nc3c2C(=O)NC3)cc1)NC1CCOCC1 [Compound I-65, 2-(4-((2-(2,6-difluorophenyl)-5-oxo-6,7-dihydro-5H-pyrrolo[3,4-d]pyrimidin-4-yl)amino)phenyl)-N-(tetrahydro-2H-pyran-4-yl)acetamide] | – | – | 100 to 1000 nM | < 10 nM | – | > 20000 nM | < 2000 nM
5 | CC(=O)Nc1ccc(Nc2cc(-c3c(F)cccc3F)nc3c2C(=O)NC3)nc1 [Compound I-237, N-(6-((2-(2,6-difluorophenyl)-5-oxo-6,7-dihydro-5H-pyrrolo[3,4-b]pyridin-4-yl)amino)pyridin-3-yl)acetamide] | – | – | 10 to 100 nM | < 10 nM | – | > 20000 nM | < 2000 nM
6 | COc1ccc(Nc2nc(-c3c(F)cccc3F)nc3c2C(=O)NC3)cc1 [Compound I-110, 2-(2,6-difluorophenyl)-4-((4-methoxyphenyl)amino)-6,7-dihydro-5H-pyrrolo[3,4-d]pyrimidin-5-one] | > 20000 nM | < 2000 nM | > 1000 nM | < 10 nM | – | – | –
7 | CC(C)(O)CN1CCC(c2ccc(Nc3nc(-c4c(F)cccc4F)nc4c3C(=O)NC4)cc2)C1=O (stereo not shown) [Compound I-161, 2-(2,6-difluorophenyl)-4-((4-(1-(2-hydroxy-2-methylpropyl)-2-oxopyrrolidin-3-yl)phenyl)amino)-6,7-dihydro-5H-pyrrolo[3,4-d]pyrimidin-5-one] | – | – | 100 to 1000 nM | < 10 nM | – | 2000 to 20000 nM | < 2000 nM
8 | O=C1NCc2nc(-c3c(F)cccc3Cl)nc(Nc3ccc([C@H]4CCNC4=O)cc3)c21 [Compound I-114, (R)-2-(2-chloro-6-fluorophenyl)-4-((4-(2-oxopyrrolidin-3-yl)phenyl)amino)-6,7-dihydro-5H-pyrrolo[3,4-d]pyrimidin-5-one] | – | – | 100 to 1000 nM | < 10 nM | – | 2000 to 20000 nM | < 2000 nM
9 | O=C1NCc2nc(-c3c(F)cccc3F)cc(Nc3ccc(NCCN4CCC(F)(F)CC4)cn3)c21 [Compound I-135, 2-(2,6-difluorophenyl)-4-((5-((2-(4,4-difluoropiperidin-1-yl)ethyl)amino)pyridin-2-yl)amino)-6,7-dihydro-5H-pyrrolo[3,4-b]pyridin-5-one] | – | – | 10 to 100 nM | < 10 nM | – | < 2000 nM | < 2000 nM
10 | O=C1NCc2nc(-c3c(F)cccc3F)nc(Nc3ccc(CC(=O)N4CCOCC4)cc3)c21 [Compound I-66, 2-(2,6-difluorophenyl)-4-((4-(2-morpholino-2-oxoethyl)phenyl)amino)-6,7-dihydro-5H-pyrrolo[3,4-d]pyrimidin-5-one] | – | – | 100 to 1000 nM | < 10 nM | – | > 20000 nM | < 2000 nM
11 | O=C1NCc2nc(-c3c(F)cccc3F)nc(Nc3ccc(CC(=O)N4CCC[C@H]4CO)cc3)c21 [Compound I-16, (S)-2-(2,6-difluorophenyl)-4-((4-(2-(2-(hydroxyl-methyl)pyrrolidin-1-yl)-2-oxoethyl)phenyl)amino)-6,7-dihydro-5H-pyrrolo[3,4-d]pyrimidin-5] | – | – | 100 to 1000 nM | < 10 nM | – | > 20000 nM | < 2000 nM
12 | CN1CCN(c2ccc(Nc3cc(-c4c(F)cccc4F)nc4c3C(=O)NC4)nc2)CC1 [Compound I-163, 2-(2,6-difluorophenyl)-4-((5-(4-methylpiperazin-1-yl)pyridin-2-yl)amino)-6,7-dihydro-5H-pyrrolo[3,4-b]pyridin-5-one] | – | – | 10 to 100 nM | < 10 nM | – | 2000 to 20000 nM | < 2000 nM
13 | O=C1NCc2nc(-c3c(F)cccc3F)cc(Nc3ccc(OCCN4CCOCC4)cn3)c21 [Compound I-148, 2-(2,6-difluorophenyl)-4-((5-(2-morpholinoethoxy)pyridin-2-yl)amino)-6,7-dihydro-5H-pyrrolo[3,4-b]pyridin-5-one] | – | – | 10 to 100 nM | < 10 nM | – | 2000 to 20000 nM | < 2000 nM
14 | O=C1NCc2nc(-c3c(F)cccc3F)cc(Nc3ccc(N4CCOCC4)cn3)c21 [Compound I-171, 2-(2,6-difluorophenyl)-4-((5-morpholinopyridin-2-yl)amino)-6,7-dihydro-5H-pyrrolo[3,4-b]pyridin-5-one] | – | – | 10 to 100 nM | < 10 nM | – | 2000 to 20000 nM | < 2000 nM
15 | CC(C)(C)N1CCN(c2ccc(Nc3cc(-c4c(F)cccc4F)nc4c3C(=O)NC4)nc2)CC1 [Compound I-227, 4-((5-(4-(tert-butyl)piperazin-1-yl)pyridin-2-yl)amino)-2-(2,6-difluorophenyl)-6,7-dihydro-5H-pyrrolo[3,4-b]pyridin-5-one] | – | – | < 10 nM | < 10 nM | – | < 2000 nM | < 2000 nM
16 | C[C@@H]1COC[C@@H](C)N1c1ccc(Nc2cc(-c3c(F)cccc3F)nc3c2C(=O)NC3)nc1 [Compound I-263, 2-(2,6-difluorophenyl)-4-((5-((3R,5R)-3,5-dimethylmorpholino)pyridin-2-yl)amino)-6,7-dihydro-5H-pyrrolo[3,4-b]pyridin-5-one] | – | – | < 10 nM | < 10 nM | – | < 2000 nM | < 2000 nM
17 | O=C1NCc2nc(-c3c(F)cccc3F)cc(Nc3ccc(N4CCC(F)(F)CC4)cn3)c21 [Compound I-182, 2-(2,6-difluorophenyl)-4-((5-(4,4-difluoropiperidin-1-yl)pyridin-2-yl)amino)-6,7-dihydro-5H-pyrrolo[3,4-b]pyridin-5-one] | – | – | 10 to 100 nM | < 10 nM | – | 2000 to 20000 nM | < 2000 nM
18 | CCNC(=O)Cc1ccc(Nc2nc(-c3ccccc3Cl)nc3c2C(=O)NC3)cc1 [Compound I-20, 2-(4-((2-(2-chlorophenyl)-5-oxo-6,7-dihydro-5H-pyrrolo[3,4-d]pyrimidin-4-yl)amino)phenyl)-N-ethylacetamide] | > 20000 nM | – | 100 to 1000 nM | 10 to 100 nM | – | – | < 2000 nM
19 | CC(C)(C(=O)O)c1ccc(Nc2nc(-c3c(F)cccc3F)nc3c2C(=O)NC3)cc1 [Compound I-109, 2-(4-((2-(2,6-difluorophenyl)-5-oxo-6,7-dihydro-5H-pyrrolo[3,4-d]pyrimidin-4-yl)amino)phenyl)-2-methylpropanoic Acid] | – | 2000 to 20000 nM | 100 to 1000 nM | < 10 nM | – | > 20000 nM | –
